# From EPA's ToxRefDB 2
# Experiments:
# dog [1] = settings: Subchronic oral toxicity in nonrodent, beagle, Capsule, dose end: 96 day, group: systemic, systemic / in life observation / body weight / body weight gain + systemic / in life observation / clinical signs / emaciation + systemic / …
# rat [2] = settings: Sub-acute dermal toxicity, sprague dawley, Topical, dose end: 21 day, group: systemic
# rabbit [3] = settings: Prenatal developmental toxicity study, new zealand white, Oral, Gavage/Intubation, dose end: 18 GD
# rat [4] = settings: Subchronic oral toxicity in rodents, sprague dawley, Feed, dose end: 90 day, group: systemic, systemic / clinical chemistry / albumin / albumin + systemic / in life observation / body weight / body weight gain + systemic / organ …
# dog [5] = settings: Chronic toxicity; beagle; Oral; Feed; dose end: 104 week; group: systemic; systemic / clinical chemistry / alanine aminotransferase (alt/sgpt) / alanine aminotransferase (alt/sgpt) + systemic / clinical chemistry / …
# rat [6] = settings: Combined chronic toxicity/carcinogenicity, sprague dawley, Oral, Feed, dose end: 104 week, group: systemic
# mouse [7] = settings: Carcinogenicity, cd1, Oral, Feed, dose end: 80 week, group: systemic
# dog [8] = settings: Subchronic oral toxicity in nonrodent, beagle, Feed, dose end: 118 day, group: systemic
# rat [9] = settings: Subchronic oral toxicity in rodents, wistar, Feed, dose end: 90 day, group: systemic
# rat [10] = settings: Prenatal developmental toxicity study, sprague dawley, Oral, Gavage/Intubation, dose end: 19 GD
# rabbit [11] = settings: Prenatal developmental toxicity study, new zealand white, Oral, Gavage/Intubation, dose end: 19 GD
# rat [12] = settings: Combined chronic toxicity/carcinogenicity; wistar; Oral; Feed; dose end: 104 week; group: systemic; systemic / in life observation / body weight / body weight + systemic / in life observation / body weight / body weight gain
# dog [13] = settings: Chronic toxicity, beagle, Oral, Feed, dose end: 52 week, group: systemic
# mouse [14] = settings: Carcinogenicity; cd1; Oral; [Not Specified]; group: systemic; systemic / in life observation / body weight / body weight gain
# rat [15] = settings: Multigenerational reproductive toxicity study, wistar, Oral, Feed, dose end: 2 generation
# dog [16] = settings: Subchronic oral toxicity in nonrodent, beagle, Feed, dose end: 13 week, group: systemic
# rat [17] = settings: Prenatal developmental toxicity study, sprague dawley, Oral, Gavage/Intubation, dose end: 15 GD
# rat [18] = settings: Subchronic oral toxicity in rodents, wistar, Feed, dose end: 90 day, group: systemic, systemic / in life observation / body weight / body weight + systemic / in life observation / body weight / body weight gain + systemic / in…
# [19] = systemic / in life observation / body weight / body weight gain
# [20] = systemic / in life observation / clinical signs / erythema
# [21] = group: developmental, developmental / developmental malformation / bone / incomplete ossification
# [22] = group: maternal, reproductive / reproductive performance / postimplantation loss / postimplantation loss + reproductive / reproductive performance / …
# [23] = systemic / pathology microscopic / testes / adenoma + systemic / in life observation / body weight / body weight + systemic / in life …
# [24] = systemic / organ weight / liver / absolute
# [25] = systemic / organ weight / liver / absolute + systemic / organ weight / liver / relative to body weight
# [26] = systemic / clinical chemistry / creatinine / creatinine + systemic / clinical chemistry / urea nitrogen / urea nitrogen
# [27] = systemic / clinical chemistry / creatinine / creatinine + systemic / clinical chemistry / urea nitrogen / urea nitrogen + systemic / …
# [28] = systemic / clinical chemistry / alanine aminotransferase (alt/sgpt) / alanine aminotransferase (alt/sgpt) + systemic / clinical chemistry / …
# [29] = group: developmental, developmental / developmental malformation / bone / bent + developmental / developmental malformation / bone / full supernumerary + …
# [30] = group: maternal, reproductive / reproductive performance / resorptions / resorptions + systemic / in life observation / clinical signs / abnormal movements…
# [31] = group: developmental, developmental / developmental malformation / bone / supernumerary + developmental / developmental malformation / bone / extra ossification …
# [32] = group: maternal, systemic / in life observation / body weight / body weight gain + systemic / in life observation / clinical signs / abnormal feces
# [33] = group: maternal, systemic / in life observation / body weight / body weight gain + systemic / in life observation / clinical signs / abnormal feces + …
# [34] = systemic / in life observation / food consumption / food consumption
# [35] = group: offspring, developmental / developmental malformation / general / runts + systemic / in life observation / body weight / offspring (pup) weight + …
# [36] = group: offspring, developmental / developmental malformation / general / runts + systemic / organ weight / thymus / absolute + systemic / organ weight / …
# [37] = group: reproductive, reproductive / offspring survival early / birth index / live birth index
# [38] = systemic / pathology microscopic / bone marrow / hyperplasia + systemic / pathology microscopic / liver / hematopoietic cell proliferation
# [39] = systemic / pathology microscopic / bone marrow / hyperplasia + systemic / pathology microscopic / liver / hematopoietic cell proliferation…
# [40] = group: developmental, developmental / developmental malformation / bone / incomplete ossification + systemic / in life observation / body weight / fetal weight
# [41] = group: maternal, systemic / in life observation / body weight / body weight gain + systemic / in life observation / food consumption / food consumption
smiles,measurement,setting,value
CCCCCCCCCCCCN=C(N)N [Dodecylguanidine],LEL,dog [1],100 mg/kg/day
same,LOAEL,dog [1],100 mg/kg/day
same,NEL,dog [1],25 mg/kg/day
same,NOAEL,dog [1],25 mg/kg/day
same,LOAEL,rat [2]; [19],50 mg/kg/day
same,NOAEL,rat [2]; systemic / in life observation / body weight / body weight gain + systemic / in life observation / clinical signs / desquamation + systemic…,25 mg/kg/day
same,LEL,rat [2]; [20],12.5 mg/kg/day
same,NEL,rat [2]; [20],< 12.5 mg/kg/day
CCOC1Oc2ccc(OS(C)(=O)=O)cc2C1(C)C (configuration not stated) [Ethofumesate],LEL,rabbit [3]; [21],300 mg/kg/day
same,LOAEL,rabbit [3]; [21],300 mg/kg/day
same,NEL,rabbit [3]; [21],30 mg/kg/day
same,NOAEL,rabbit [3]; [21],30 mg/kg/day
same,LEL,rabbit [3]; [22],300 mg/kg/day
same,LOAEL,rabbit [3]; [22],300 mg/kg/day
same,NEL,rabbit [3]; [22],30 mg/kg/day
same,NOAEL,rabbit [3]; [22],30 mg/kg/day
same,LEL,rat [4],1900 mg/kg/day
same,LOAEL,rat [4],1900 mg/kg/day
same,NEL,rat [4],190 mg/kg/day
same,NOAEL,rat [4],190 mg/kg/day
same,LEL,dog [5],619 mg/kg/day
same,LOAEL,dog [5],619 mg/kg/day
same,NEL,dog [5],109 mg/kg/day
same,NOAEL,dog [5],109 mg/kg/day
same,LOAEL,rat [6]; [19],469 mg/kg/day
same,NOAEL,rat [6]; systemic / in life observation / body weight / body weight gain + systemic / clinical chemistry / alkaline phosphatase (alp/alk) / alkaline …,127 mg/kg/day
same,LEL,rat [6]; [23],97 mg/kg/day
same,NEL,rat [6]; [23],< 97 mg/kg/day
same,LEL,mouse [7]; [24],204 mg/kg/day
same,NEL,mouse [7]; [24],< 204 mg/kg/day
same,LOAEL,mouse [7]; [25],> 2140 mg/kg/day
same,NOAEL,mouse [7]; [25],≥ 2140 mg/kg/day
CNC.Cc1cc(Cl)ccc1OCC(=O)O [MCPA-dimethylammonium],LEL,dog [8]; [26],2.4 mg/kg/day
same,LOAEL,dog [8]; [26],2.4 mg/kg/day
same,NEL,dog [8]; [27],0.6 mg/kg/day
same,NOAEL,dog [8]; [27],0.6 mg/kg/day
same,LOAEL,rat [9]; [28],208 mg/kg/day
same,NOAEL,rat [9]; [28],42 mg/kg/day
same,LEL,rat [9]; [25],4 mg/kg/day
same,NEL,rat [9]; [25],< 4 mg/kg/day
same,LEL,rat [10]; [29],185 mg/kg/day
same,LOAEL,rat [10]; [29],185 mg/kg/day
same,NEL,rat [10]; [29],62 mg/kg/day
same,NOAEL,rat [10]; [29],62 mg/kg/day
same,LEL,rat [10]; [30],185 mg/kg/day
same,LOAEL,rat [10]; [30],185 mg/kg/day
same,NEL,rat [10]; [30],62 mg/kg/day
same,NOAEL,rat [10]; [30],62 mg/kg/day
C/C(=N\NC(=O)Nc1cc(F)cc(F)c1)c1ncccc1C(=O)O [Diflufenzopyr],LOAEL,"rabbit [11]; group: developmental, developmental / developmental malformation / bone / supernumerary",300 mg/kg/day
same,LEL,rabbit [11]; [31],300 mg/kg/day
same,NEL,rabbit [11]; [31],100 mg/kg/day
same,NOAEL,rabbit [11]; [31],100 mg/kg/day
same,LEL,rabbit [11]; [32],100 mg/kg/day
same,LOAEL,rabbit [11]; [32],100 mg/kg/day
same,NEL,rabbit [11]; [33],30 mg/kg/day
same,NOAEL,rabbit [11]; [33],30 mg/kg/day
same,LEL,rat [12],69 mg/kg/day
same,LOAEL,rat [12],> 518 mg/kg/day
same,NEL,rat [12],22 mg/kg/day
same,NOAEL,rat [12],≥ 518 mg/kg/day
same,LOAEL,dog [13]; systemic / hematology / reticulocyte / reticulocyte + systemic / pathology microscopic / bone marrow / hyperplasia,299 mg/kg/day
same,NOAEL,dog [13]; systemic / hematology / reticulocyte / reticulocyte + systemic / pathology microscopic / bone marrow / hyperplasia + systemic / hematology…,26 mg/kg/day
same,LEL,dog [13]; [34],26 mg/kg/day
same,NEL,dog [13]; [34],< 26 mg/kg/day
same,LEL,mouse [14],1000 mg/kg/day
same,LOAEL,mouse [14],> 1000 mg/kg/day
same,NEL,mouse [14],500 mg/kg/day
same,NOAEL,mouse [14],≥ 1000 mg/kg/day
same,LEL,rat [15]; [35],552 mg/kg/day
same,LOAEL,rat [15]; [35],552 mg/kg/day
same,NEL,rat [15]; [36],126 mg/kg/day
same,NOAEL,rat [15]; [36],126 mg/kg/day
same,LEL,rat [15]; [37],552 mg/kg/day
same,LOAEL,rat [15]; [37],552 mg/kg/day
same,NEL,rat [15]; [37],126 mg/kg/day
same,NOAEL,rat [15]; [37],126 mg/kg/day
same,LEL,dog [16]; [38],403 mg/kg/day
same,LOAEL,dog [16]; [38],403 mg/kg/day
same,NEL,dog [16]; [39],58 mg/kg/day
same,NOAEL,dog [16]; [39],58 mg/kg/day
same,LEL,rat [17]; [40],1000 mg/kg/day
same,LOAEL,rat [17]; [40],1000 mg/kg/day
same,NEL,rat [17]; [40],300 mg/kg/day
same,NOAEL,rat [17]; [40],300 mg/kg/day
same,LEL,rat [17]; [41],1000 mg/kg/day
same,LOAEL,rat [17]; [41],1000 mg/kg/day
same,NEL,rat [17]; [41],300 mg/kg/day
same,NOAEL,rat [17]; [41],300 mg/kg/day
same,LEL,rat [18],725 mg/kg/day
same,LOAEL,rat [18],725 mg/kg/day
same,NEL,rat [18],352 mg/kg/day
same,NOAEL,rat [18],352 mg/kg/day
